The results in this text go back to ChEMBL document CHEMBL4334495, “Design and Biological Evaluation of m-Xylene Thioether-Stapled Short Helical Peptides Targeting the HIV-1 gp41 Hexameric Coiled-Coil Fusion Complex” (J Med Chem, 2019).

Assay [1] concerns Human immunodeficiency virus 1. Nature of the assay: Synergistic antiviral activity against T2635 resistant HIV1 LAI harboring Q66R mutant infected in human MT2 cells or CEMx174 5.25 M7 cells assessed as reduction in p24 Gag protein production by measuring combination index at 25:1 compound ratio measured at 4 days post infection by ELISA. The assay is classed as functional, M:B_Lai. In general terms: ELISA stands for enzyme-linked immunosorbent assay.

For assay [2], the system named is Human immunodeficiency virus 1. Nature of the assay: Ratio of EC50 for antiviral activity against T2635 resistant HIV1 LAI harboring Q66R mutant infected in human MT2 cells or CEMx174 5.25 M7 cells in absence of HP23 to antiviral activity against T2635 resistant HIV1 LAI harboring Q66R mutant infected in human MT2 cells or CEMx174 5.25 M7 cells at 25:1 ratio of compound to HP23. It counts as functional, M:B_Lai.

Assay [3] deals with Human immunodeficiency virus 1. Nature of the assay: Antiviral activity against X4 tropic HIV-1 subtype-B 3B infected in human MT2 cells or CEMx174 5.25 M7 cells assessed as reduction in p24 Gag protein production at 24:1 compound to HP23 ratio measured at 4 days post-infection by ELISA. It counts as functional, cell-based, HIV-1 group M. The note with it: Human immunodeficiency virus 1, 3B, 96 h.

Assay [4] deals with Envelope glycoprotein gp160 (Human immunodeficiency virus 1) (UniProt Q6QLK5). Nature of the assay: Synergistic inhibition of HIV1 gp41-induced cell-cell fusion between viral envelope expressing human HL2/3 cells to CD4/CCR5 receptor expressing TZM-bl cells assessed as combination index at 1:1 compound to HP23 ratio incubated for 6 hrs by luciferase reporter gene assay. (In general: Reporter assays use an easily measured gene product as a stand-in for the process of interest.)

The subject of assay [5] is Human immunodeficiency virus 1. Nature of the assay: Antiviral activity against T20 resistant HIV1 NL4-3 harboring with V38E/N42T mutant infected in human MT2 cells or CEMx174 5.25 M7 cells assessed as reduction in p24 Gag protein production at 600:1 compound to HP23 ratio measured at 4 days post-infection by ELISA. The assay is classed as functional, organism-based.
Assay [6] relates to Human immunodeficiency virus 1. Nature of the assay: Synergistic antiviral activity against T20 resistant HIV1 NL4-3 harboring with V38E/N42T mutant infected in human MT2 cells or CEMx174 5.25 M7 cells assessed as reduction in p24 Gag protein production by measuring combination index at 300:1 compound to HP23 ratio measured at 4 days post-infection by ELISA. The assay is classed as functional.

Assay [7] concerns Human immunodeficiency virus 1. Put plainly: Ratio of EC50 for antiviral activity against T2635 resistant HIV1 LAI harboring Q66R mutant infected in human MT2 cells or CEMx174 5.25 M7 cells in absence of HP23 to antiviral activity against T2635 resistant HIV1 LAI harboring Q66R mutant infected in human MT2 cells or CEMx174 5.25 M7 cells at 50:1 ratio of compound to HP23. The assay is classed as functional, M:B_Lai.

The subject of assay [8] is Human immunodeficiency virus 1. Put plainly: Ratio of EC50 for antiviral activity against R5 tropic HIV-1 subtype-B Bal infected in human MT2 cells or CEMx174 5.25 M7 cells in absence of HP23 to EC50 for antiviral activity against R5 tropic HIV-1 subtype-B Bal infected in human MT2 cells or CEMx174 5.25 M7 cells at 6:1 compound to HP23 ratio. The assay is classed as functional, HIV-1 group M.

Assay [9] relates to Human immunodeficiency virus 1. Put plainly: Antiviral activity against X4 tropic HIV-1 subtype-B 3B infected in human MT2 cells or CEMx174 5.25 M7 cells assessed as reduction in p24 Gag protein production at 6:1 ratio of hCS6ERE to compound measured at 4 days post-infection by ELISA. The assay is classed as functional, cell-based, HIV-1 group M. The note with it: Human immunodeficiency virus 1, 3B, 96 h.

Assay [10] deals with Human immunodeficiency virus 1. Put plainly: Antiviral activity against HIV1 NL4-3 infected in human MT2 cells or CEMx174 5.25 M7 cells assessed as reduction in p24 Gag protein production at 20:1 hCS6ERE to compound ratio measured at 4 days post-infection by ELISA. The assay is classed as functional, organism-based. The note with it: Human immunodeficiency virus 1, NL4-3, 96 h.

For assay [11], the target named is Envelope glycoprotein gp160 (Human immunodeficiency virus 1) (UniProt Q6QLK5). Put plainly: Ratio of EC50 for inhibition of HIV1 gp41-induced cell-cell fusion between viral envelope expressing human HL2/3 cells to CD4/CCR5 receptor expressing TZM-bl cells in absence of HP23 to EC50 for inhibition of HIV1 gp41-induced cell-cell fusion between viral envelope expressing human HL2/3 cells to CD4/CCR5 receptor expressing TZM-bl cells at 2:1 ratio of hCS6ERE to compound.

For assay [12], the system named is Human immunodeficiency virus 1. Nature of the assay: Antiviral activity against T20 resistant HIV1 NL4-3 harboring with V38E/N42T mutant infected in human MT2 cells or CEMx174 5.25 M7 cells assessed as reduction in p24 Gag protein production at 600:1 hCS6ERE to compound ratio measured at 4 days post-infection by ELISA. The assay is classed as functional, organism-based.

Assay [13] deals with Human immunodeficiency virus 1. Nature of the assay: Antiviral activity against T2635 resistant HIV1 LAI harboring Q66R mutant infected in human MT2 cells or CEMx174 5.25 M7 cells assessed as reduction in p24 Gag protein production at 12.5:1 ratio of hCS6ERE to compound measured at 4 days post infection by ELISA. It counts as functional, organism-based, M:B_Lai.
Assay [14] concerns Human immunodeficiency virus 1. Nature of the assay: Antiviral activity against T20 resistant HIV1 NL4-3 harboring with V38E/N42S mutant infected in human MT2 cells or CEMx174 5.25 M7 cells assessed as reduction in p24 Gag protein production at 14000:1 hCS6ERE to compound ratio measured at 4 days post-infection by ELISA. It counts as functional, organism-based.
Assay [15] relates to Human immunodeficiency virus 1. Nature of the assay: Ratio of EC50 for antiviral activity against X4 tropic HIV-1 subtype-B 3B infected in human MT2 cells or CEMx174 5.25 M7 cells in absence of hCS6ERE to EC50 for antiviral activity against X4 tropic HIV-1 subtype-B 3B infected in human MT2 cells or CEMx174 5.25 M7 cells at 24:1 ratio of hCS6ERE to compound. The assay is classed as functional, HIV-1 group M.

Starred links: 1 amine or outer side, 2 acyl side, 3 side chain; linkers in the order of their positions; H or OH if unused. Positions of bridges follow the written chain, without caps; N, C: chain ends. Non-standard residues stand in square brackets, D forms with d. Residues, ends and D or L forms follow the SMILES beside them. ξ: configuration not given here. mXylylene = c1cc(C[*:1])cc(C[*:2])c1; ξhCys = NC(CCS)C(=O)O

Envelope glycoprotein gp160 (Human immunodeficiency virus 1), sequence (Q6QLK5 1-814): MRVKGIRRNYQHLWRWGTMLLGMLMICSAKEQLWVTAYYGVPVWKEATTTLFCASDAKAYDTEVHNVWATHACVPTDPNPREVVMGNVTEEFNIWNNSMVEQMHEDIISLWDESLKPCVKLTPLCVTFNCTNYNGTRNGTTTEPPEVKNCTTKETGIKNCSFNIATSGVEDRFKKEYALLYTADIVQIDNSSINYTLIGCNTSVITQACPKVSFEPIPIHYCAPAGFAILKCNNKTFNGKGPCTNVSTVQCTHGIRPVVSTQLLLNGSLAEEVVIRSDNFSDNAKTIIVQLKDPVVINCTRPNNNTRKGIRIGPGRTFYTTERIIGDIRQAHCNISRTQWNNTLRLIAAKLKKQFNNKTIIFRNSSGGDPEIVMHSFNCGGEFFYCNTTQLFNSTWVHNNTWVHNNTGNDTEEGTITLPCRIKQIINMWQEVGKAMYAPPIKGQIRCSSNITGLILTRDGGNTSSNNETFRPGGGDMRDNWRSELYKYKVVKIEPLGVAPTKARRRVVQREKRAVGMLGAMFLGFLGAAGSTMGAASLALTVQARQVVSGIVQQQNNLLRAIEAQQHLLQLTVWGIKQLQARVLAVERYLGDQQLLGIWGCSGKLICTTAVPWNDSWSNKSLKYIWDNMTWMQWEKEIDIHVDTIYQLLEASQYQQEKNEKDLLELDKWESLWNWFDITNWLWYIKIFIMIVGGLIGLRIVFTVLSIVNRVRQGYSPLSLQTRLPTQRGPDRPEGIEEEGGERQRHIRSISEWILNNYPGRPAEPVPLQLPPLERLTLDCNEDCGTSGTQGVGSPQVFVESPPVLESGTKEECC

As usually defined, the EC50 is the concentration that produces a half-maximal response. As for `CC[C@H](C)[C@H](NC(C)=O)C(=O)N[C@@H](CCC(=O)O)C(=O)N[C@@H](CCC(=O)O)C(=O)N[C@@H](CC(C)C)C(=O)N[C@H](C(=O)NC1CCSCc2cccc(c2)CSCCC(C(=O)N[C@@H](CCC(N)=O)C(=O)N[C@@H](CCC(N)=O)C(=O)N[C@@H](CCCNC(=N)N)C(=O)N[C@@H](CCCCN)C(=O)N[C@@H](CC(N)=O)C(=O)N[C@@H](CCC(=O)O)C(=O)N[C@@H](CCC(=O)O)C(=O)N[C@@H](C)C(=O)N[C@@H](CC(C)C)C(=O)N[C@@H](CCCNC(=N)N)C(=O)N[C@@H](CCC(=O)O)C(=O)N[C@@H](CC(C)C)C(N)=O)NC(=O)[C@H](CCC(N)=O)NC(=O)[C@H](C)NC(=O)[C@H](C)NC1=O)[C@@H](C)CC` (stereo not given in full) (Ac-IEELI[ξhCys]AAQ[ξhCys]QQRKNEEALREL-NH2; linker 6-10 via mXylylene), the CI in assay [1] came out at 0.8; in [4] it was 0.9; in assay [6] it was 0.8. The “Ratio EC50” value in assay [2] came out at 2.2; in assay [7], 3.3; in assay [8] it was 3.8. The results for the concentration giving a half-maximal response (EC50) in [3] and in assay [5] were 17.3 nM and 468 nM, respectively.
H-EMTWEEWEKKIEEYTKKIEEILK-OH: the concentration giving a half-maximal response (EC50) in assay [9] was found to be 1.3 nM; in assay [10] it was 0.7 nM; in assay [12], 0.8 nM; in assay [13], 1.8 nM; in assay [14], 0.2 nM. The Ratio EC50 in assay [11] was determined as 2; in assay [15] it was 3.6.
